From patent publication US8729097B2, “Quinoline compounds as inhibitors of angiogenesis, human methionine aminopeptidase, and SIRT1, and methods of treating disorders” (The Johns Hopkins University, priority 2008, dated 2014)
Values joined by “and” are separate entries in the source; they are usually repeats but may differ in a detail not shown here. Equal values may be shown once.

Key:
SirT3 = SirT3 (Homo sapiens, UniProt Q9NTG7); test: biochemical
Protocol: (§2) The sirtuin fluorometric assay kits were obtained from Biomol. The assay was conducted according to the manufacturer's instruction. One unit of SirT1 was used per reaction. For SirT2 and SirT3, 2 units were used for the assay.

[1] = test system: p53 and Rb pathways in HUVECs; test: Western blot of p53, p21 and Rb in HUVEC; assay type: cell-based, human
Protocol: (§1) Cells were lysed by adding 1 volume of 2× Laemmli buffer and were then boiled for 5 min. The samples were separated by SDS-PAGE and transferred to nitrocellulose membrane (Bio-Rad). Proteins were detected using primary antibodies for p53 (Santa Cruz), met-14-3-3γ (Novus), p21 (Santa Cruz), Rb (Santa Cruz), MetAP2 (Hu, X. et al (2006) Proc. Natl. Acad. Sci. U.S.A. 103, 18148-18153), SirT1 (Santa Cruz), acetyl-p53-K382 (Abeam), acetyl-tubulin (Sigma), histone-H3 (Santa Cruz), acetyl-H3 (Santa Cruz) and α-tubulin (TU-02, Santa Cruz) followed by the incubation with horseradish peroxidase (HRP)-conjugated anti-mouse or anti-rabbit antibodies (Santa Cruz) and enhanced chemiluminescence (ECL, Amersham).

HFF = HFF proliferation (selectivity); assay type: cell-based; settings: Homo sapiens, HFF; Table 2
[2] = test system: angiogenesis in Matrigel plugs; test: Matrigel plug assay in vivo; settings: 60 mg/kg, i.p., nude mice, versus vehicle
Protocol: Female athymic nude mice (NCR nu/nu, 4-6 weeks old) were purchased from NCI-Frederick, Md. and treated in accordance with Johns Hopkins Animal Care and Use Committee procedures. […] Mice were pre-treated for 3 days before 0.5 mL of Matrigel (BD Biosciences) containing 150 ng/ml VEGF and 200 ng/ml bFGF was implanted subcutaneously. Drug treatment was continued daily for an additional 10 days. Mice were sacrificed, and Matrigel plugs were harvested, fixed in neutral buffered formalin, and processed for histology using MAS-trichrome staining. A cross-section of the entire Matrigel plug was photographed at ×100. And erythrocyte-filled blood vessels were counted per field in a blinded manner.

SirT2 = SirT2 (Homo sapiens, UniProt Q8IXJ6); test: biochemical; settings: SirT2 IC50, recombinant human sirtuin, fluorogenic substrate
Protocol: as §2

[3] = test system: acetylation of p53 (K382), α-tubulin and histone-H3; test: Acetylation status of sirtuin substrates in HUVEC (Western blot); assay type: cell-based, human
Protocol: as §1

[4] = test system: HCC1954 human breast cancer cells; test: Breast cancer xenografts; assay type: in vivo, mice
Protocol: Approximately two million of HCC1954 cells were injected bilaterally and subcutaneously into female athymic nude mice (NCR nu/nu, n=5/group). After tumors became palpable, control mice were treated with vehicle (peanut oil with 5% DMSO). […] The tumor volume was measured using a vernier caliper and calculated according to the modified ellipsoid formula: Tumor volume (mm^3)=(short axis)^2×(long axis)×π/6
After 30 days of treatment, the mice were sacrificed and the tumor tissues were extracted for immunohistochemical analysis and Western blots.

Sequence of SirT2 (Q8IXJ6 whole entry): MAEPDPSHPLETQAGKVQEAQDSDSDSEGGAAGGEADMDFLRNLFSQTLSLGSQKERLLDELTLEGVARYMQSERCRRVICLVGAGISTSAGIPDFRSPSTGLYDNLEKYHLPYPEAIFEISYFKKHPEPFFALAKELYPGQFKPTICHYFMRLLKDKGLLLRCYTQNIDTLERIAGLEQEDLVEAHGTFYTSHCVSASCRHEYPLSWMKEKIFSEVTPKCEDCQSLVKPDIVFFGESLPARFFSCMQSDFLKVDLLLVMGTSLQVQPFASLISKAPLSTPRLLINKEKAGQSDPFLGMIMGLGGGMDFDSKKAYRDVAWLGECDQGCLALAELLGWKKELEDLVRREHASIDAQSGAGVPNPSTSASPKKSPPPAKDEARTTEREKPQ
Sequence of SirT3 (Q9NTG7 whole entry): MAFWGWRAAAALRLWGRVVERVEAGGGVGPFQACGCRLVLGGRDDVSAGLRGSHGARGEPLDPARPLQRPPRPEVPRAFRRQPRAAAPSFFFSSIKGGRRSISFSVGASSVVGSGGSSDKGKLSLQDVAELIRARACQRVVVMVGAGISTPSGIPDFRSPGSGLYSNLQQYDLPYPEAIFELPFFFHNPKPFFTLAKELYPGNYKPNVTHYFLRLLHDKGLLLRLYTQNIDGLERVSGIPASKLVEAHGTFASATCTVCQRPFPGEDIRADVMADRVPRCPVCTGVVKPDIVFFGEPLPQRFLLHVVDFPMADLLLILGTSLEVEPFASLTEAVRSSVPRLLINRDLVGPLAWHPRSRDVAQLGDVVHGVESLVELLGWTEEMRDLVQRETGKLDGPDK

O=[N+]([O-])c1ccc(O)c2ncccc12 [Entry 1c, nitroxoline]
IC50 (SirT3): > 50 µM | p53 protein level [1]: upregulation | Rb hyperphosphorylation ([1]; 8% SDS-PAGE): inhibited its hyperphosphorylation | total amount of Rb protein ([1]; 12% SDS-PAGE): increased the total amount of Rb protein | p21 protein level on longer incubation ([1]; longer incubation): upregulated | p53 protein level on prolonged exposure ([1]; up to 72 h): sustained increase in p53 protein level | expression of p21 ([1]; within 24 h of treatment): no effect | IC50 (HFF): 13.6 µM | density of new blood vessels in Matrigel plugs [2]: dramatic reduction in the density of new blood vessels | IC50 (SirT2): 43 µM and 35 µM | acetylation of p53-K382 ([3]; HUVEC treated for 20 h): increased the acetylation of p53-K382 | acetylation status of tubulin or histone-H3 ([3]; HUVEC, 6 h or 20 h): did not change the acetylation status | acetylation of tubulin and histone-H3 in the presence of TSA ([3]; HUVEC, with TSA (200 nM), 24 h, nitroxoline 20 μM): significantly increased the acetylation of both tubulin and histone-H3 | level of p53 protein in tumor tissues ([4]; Western blot of tumor tissues): increased | p53 acetylation in tumor tissues ([4]; Western blot of tumor tissues): significantly induced p53 acetylation | tumor-associated angiogenesis ([4]; anti-CD31 immunohistochemical staining): strongly inhibited | inhibition of growth of HCC1954 xenografts ([4]; day 30, 60 mg/kg i.p., nude mice): 55%
